These substances were tested on CHIKV.
Assay type: cell-based, chikungunya virus

Row | Substance | Score_si4 | Score_si3 | Score_si2 | Score_si1
1 | s25626 (sense CAAATCCTATAGTATAACA; chemistry not given here) [reference compound] | -0.37 |  |  | 
2 | s26119 (sense CATGGATGAGTTTACCCAA; chemistry not given here) [reference compound] |  | -0.65 |  | 
3 | s26120 (sense GGCCCTTCATCGATAGCTA; chemistry not given here) [reference compound] |  |  | -0.97 | 
4 | s26228 (sense GAACCTCACTGAGCCTTGA; chemistry not given here) |  |  | 0.75 | 
5 | s26229 (sense GGTGGTATACGGGACCAAT; chemistry not given here) |  | -0.1 |  | 
6 | s26230 (sense CGGGACCAATTACCGCAAA; chemistry not given here) | -0.18 |  |  | 
7 | s26801 (sense CCGAGAACCTCACAGAGAA; chemistry not given here) |  |  |  | 2.26
8 | s26802 (sense ACATCTCAGGGACCCATTT; chemistry not given here) | 1.65 |  |  | 
9 | s26872 (sense GGGTTGACCTCATCCTCGA; chemistry not given here) | 1.69 |  |  | 
10 | s26873 (sense CTTCGAGACCGGTTCAAGA; chemistry not given here) |  |  |  | 2.15
11 | s27208 (sense GACACTTGTTTCTTACCTA; chemistry not given here) [reference compound] | 0.22 |  |  | 
12 | s27209 (sense GGGTATAGAGGATAACCAA; chemistry not given here) [reference compound] |  |  | -0.58 | 
13 | s27210 (sense GGTTTTAAACATAACGAAA; chemistry not given here) [reference compound] |  | -0.32 |  | 
14 | s27235 (sense AGACCCACACTAAAGAATT; chemistry not given here) [reference compound] |  |  | -0.6 | 
15 | s27237 (sense ACACTAAAGAATTCCGGAA; chemistry not given here) [reference compound] |  | -0.27 |  | 
16 | s27640 (sense TGAAAAACGTAGAAATGAA; chemistry not given here) |  |  | 1.74 | 
17 | s27641 (sense GGGAAACAGTTGGAAGAGA; chemistry not given here) |  | 1.64 |  | 
18 | s27642 (sense GCATGATGTTCGTCCGCAA; chemistry not given here) | 1.26 |  |  | 
19 | s28294 (sense CATTCTGTGGTGAAACATT; chemistry not given here) |  |  |  | 1.28
20 | s28296 (sense CTTCCTCGGTGGAACACGA; chemistry not given here) |  |  | 1.22 | 
21 | s28365 (sense AGATCGACAAGAACGAAGA; chemistry not given here) [reference compound] | -0.72 |  |  | 
22 | s28367 (sense CGACAAGAACGAAGACAGA; chemistry not given here) [reference compound] |  |  | -1.08 | 

Row | Substance | Score_si4 | Score_si3 | Score_si2 | Score_si1
23 | s28378 (sense CATTGTCACTTATTCGACT; chemistry not given here) | 1.57 |  |  | 
24 | s28379 (sense GAGTTACGATTGTACCCTA; chemistry not given here) |  | 1.67 |  | 
25 | s28640 (CACTCACACCATCCTATGA; chemistry not given here) |  |  |  | 1.62
26 | s28991 (GAAGAGGTTTTGGAGTATA; chemistry not given here) | 0.22 |  |  | 
27 | s28992 (GAGCAACTCTGGTCGTGTA; chemistry not given here) |  | 0.46 |  | 
28 | s28993 (CCATAGATCTGAATTGGGA; chemistry not given here) |  |  | 0.6 | 
29 | s29015 (GAGAGTATATTGACTATGA; chemistry not given here) | 0.52 |  |  | 
30 | s29017 (GTCAGTACTTTATCTCGTT; chemistry not given here) |  |  | 1.25 | 
31 | s29268 (GGATGCGAAAGACAGAGTA; chemistry not given here) |  |  | 1.55 | 
32 | s29269 (CAGTTTACCGAGGAAGAAA; chemistry not given here) |  | 1.26 |  | 
33 | s30117 (GGTCTTTGGTGGTGTACAA; chemistry not given here) |  | 0.96 |  | 
34 | s30118 (CCTGCTATCTTGGTTCCAA; chemistry not given here) | 0.62 |  |  | 
35 | s30606 (CAGTGATGGTGATTCAGAT; chemistry not given here) | 0.49 |  |  | 
36 | s31180 (CCATAGATGAGAAGCGGTT; chemistry not given here) |  | 1.93 |  | 
37 | s31181 (CCACTCGTTTTGACTATTA; chemistry not given here) | 1.82 |  |  | 
38 | s31191 (GATAATCAGTTCAACTAAA; chemistry not given here) |  |  | 1.84 | 
39 | s31192 (GGAAGGACTTACTACTACA; chemistry not given here) |  | 1.79 |  | 
40 | s31193 (GGAATGATGTCGTCAGTAA; chemistry not given here) | 1.58 |  |  | 
41 | s31318 (GTACATCTTCGAATACGAT; chemistry not given here) |  |  | 1.43 | 
42 | s31658 (CGGCCTCTGAGGTGATCAA; chemistry not given here) |  |  | 1.55 | 
43 | s31659 (CCTCTGAGGTGATCAATGA; chemistry not given here) |  | 1.43 |  | 
44 | s31660 (CTGTCACACTCACTGAAAA; chemistry not given here) |  |  |  | 1.8

Row | Substance | Score_si4 | Score_si3 | Score_si2 | Score_si1
45 | s31789 (AGGACATTATCAACCCGGA; chemistry not given here) |  | 1.5 |  | 
46 | s31790 (GGCTGTTCCTGAGACTGCA; chemistry not given here) | 0.92 |  |  | 
47 | s31791 (GACCTTAAGATACCAGTAT; chemistry not given here) |  |  | 1.71 | 
48 | s31800 (CCACACTCATCTATCGCAA; chemistry not given here) |  |  | 1.32 | 
49 | s32095 (CAGAAACGATCTACAAGAA; chemistry not given here) | 1.53 |  |  | 
50 | s32096 (GTTCCAGTATGGGAATTAT; chemistry not given here) |  | 1.63 |  | 
51 | s32097 (ACAGCGCAAGTTCCAGTAT; chemistry not given here) |  |  | 1.75 | 
52 | s32489 (GGAACAAGCTGTGATCCCA; chemistry not given here) |  |  |  | 1.66
53 | s32491 (GCCTGTATATGAGAGCCTT; chemistry not given here) | 0.05 |  |  | 
54 | s33487 (GGTTATCAATGACGAGCAA; chemistry not given here) |  | 1.7 |  | 
55 | s33488 (CCACCTAGCTTGTAACGAA; chemistry not given here) | 1.58 |  |  | 
56 | s33489 (GGACTTCTGAAAATTCGCA; chemistry not given here) |  |  | 1.9 | 
57 | s33581 (GTACTTATATGAACGTATT; chemistry not given here) | 1.43 |  |  | 
58 | s33582 (CACCTAGAGTACGAAAACA; chemistry not given here) |  |  |  | 1.69
59 | s34427 (GGTCAGAGACCATCCAGAA; chemistry not given here) |  |  | 1.71 | 
60 | s34429 (CTCCTGCCTTGAGCCCTTA; chemistry not given here) | 0.3 |  |  | 
61 | s34678 (GAGTTTAAGATGATGCCTA; chemistry not given here) |  | 0.6 |  | 
62 | s34679 (GGAAAGAAGGGAATGAGTT; chemistry not given here) |  |  | 1.1 | 
63 | s35016 (CCTGATCCACGAGAAGTCA; chemistry not given here) |  |  | 1.63 | 
64 | s35017 (AAGACAGGCTGATCAACTA; chemistry not given here) |  | 0.94 |  | 
65 | s35018 (GTGTGAAGGTAGACCGTGA; chemistry not given here) | 0.46 |  |  | 
66 | s35330 (CGGTGACTATGAAAGAAAT; chemistry not given here) | 0.15 |  |  | 

Row | Substance | Score_si4 | Score_si3 | Score_si2 | Score_si1
67 | s35331 (GCAGGTAATCTCTATACTA; chemistry not given here) |  |  | 1.81 | 
68 | s35332 (CAGGTATTCAGGTCCATGA; chemistry not given here) |  | 0.27 |  | 
69 | s35400 (ACGCAGAGGCGGGAACAAA; chemistry not given here) |  | 0.6 |  | 
70 | s35401 (GGAACAAACTAGCCCTCAA; chemistry not given here) |  |  | 0.91 | 
71 | s36691 (CAGATGTTATGGATATAAT; chemistry not given here) [reference compound] |  |  |  | -1.07
72 | s36692 (GGCTATTGATTGTCCACAT; chemistry not given here) [reference compound] | -0.43 |  |  | 
73 | s37713 (GAACCTCCTTCGGGATAAA; chemistry not given here) |  | 0.52 |  | 
74 | s37714 (GCTCCTCAAAGGATATGAA; chemistry not given here) | -0.71 |  |  | 
75 | s37715 (CCGGAGAACCTGAAACTCA; chemistry not given here) |  |  | 1.43 | 
76 | s37726 (ACTTTTCCCTCTCTCCTAA; chemistry not given here) |  | 0.28 |  | 
77 | s37727 (GTAGCAGTGTGGTAGGATA; chemistry not given here) | -0.44 |  |  | 
78 | s37917 (GCCTCAGCTCAAACTCAAA; chemistry not given here) |  |  | 1.72 | 
79 | s37918 (GAAGAGCACAAGAACCAGA; chemistry not given here) |  | 0.93 |  | 
80 | s38241 (TCCTTTTCCATGTACCAGA; chemistry not given here) | 0.18 |  |  | 
81 | s38242 (CGGTCTCATGTACCAGAAA; chemistry not given here) |  | 0.52 |  | 
82 | s38243 (AGAAATTCCGGAACCAATT; chemistry not given here) |  |  | 0.8 | 
83 | s38293 (GTAACAACAAATACTCATA; chemistry not given here) |  |  | 1.65 | 
84 | s38294 (GGGTCCTGTTCATAAAGGA; chemistry not given here) | 1.14 |  |  | 
85 | s38295 (GCAATTCTGACGACAATAT; chemistry not given here) |  | 1.57 |  | 
86 | s38697 (GCAATTTGCTGTTGCCGAA; chemistry not given here) |  | -0.06 |  | 
87 | s38698 (GGATTCTTGTTGGACTAAT; chemistry not given here) | -0.7 |  |  | 
